# Several values for one entry are separate records, joined by “and”; a condition that tells them apart may be missing. Equal values may be shown once.
# Legend:
# [1] = test system: granulocyte macrophage colony-stimulating factor release; set-up: method as in PMID 10433509; conditions: A549 cells; read-out: IC50 to inhibit granulocyte macrophage colony-stimulating factor release; cited from earlier work
# [2] = molecular target: β2-adrenergic receptor induction; set-up: method as in PMID 10433509; conditions: A549 cells; cited from earlier work
# [3] = test system: IL-6 release from A549 cells; assay: Cytokine inhibition assay, IL-6 release from A549 cells; format: cell-based; conditions: Homo sapiens, TNFα 2 ng ml^-1, read-out: IC50 (suppression of IL-6 release)
# Experimental: A549 cells into 24-well plates were split at 40 000 cells/well. After 1 day growth, cells were treated with various steroids 1 h before overnight induction of inflammation by 2 ng ml^–1 TNFα according to literature. Sixteen hours after treatment, cell culture supernatants were subjected to anti-IL-6 Elisa (R&D Quantikine Elisa Human IL-6 Kit) according to the manual.
# OVA-induced asthma = assay: OVA-induced mouse asthma model; format: in vivo, Balb/c mice; conditions: for repression of airway hyper-responsiveness (AHR): Balb/c mice; for % repression of AHR: ACH challenge 4 mg kg^-1
# Experimental: As described before, 7–9-week-old female Balb/c mice (Taconic) were sensitized on days 0, 7 and 14 by i.p. injection of 50 μg OVA/1 mg alum in a total of 200 μl saline. Control mice received an equal volume of alum only. Mice were lightly anesthetized by isoflurane inhalation and challenged with intranasal OVA (100 μg in 30 μl saline) or saline on days 21–23, and were i.p. injected with different steroids. Twenty-four hours after the last challenge and treatment, pulmonary resistance was measured in response to a range of concentrations of intravenous acetylcholine using the forced oscillation technique with the FlexiVent system (SCIREQ) as previously described. Serum samples were analyzed for OVA-specific IgE using an ELISA (BD Biosciences, clone R35-118). Total and differential cell counts were determined by hemocytometer and by light microscopic evaluation of more than 300 cells per slide as previously described. After lavage, lungs were inflated with 10% buffered formalin to 25 cm H2O and transferred to 10% buffered formalin. Sections (5 μm) were stained with H&E for semi-quantitative assessment of inflammation and PAS for evaluation of mucus production. To quantify inflammation, H&E-stained lung sections were de-identified for blinding and scored for peribronchial and perivascular inflammatory cell infiltration: grade 0, no infiltration; grade 1, <25% of examined area; grade 2, 25–50%; grade 3, 51–75%; and grade 4, >75%. To quantify goblet cell hyperplasia, PAS stained lung sections were de-identified for blinding and scored for the percentage of PAS positive cells among airway epithelial cells: grade 0: none; grade 1 <25% of airway epithelial cells; grade 2, 25–50%; grade 3, 51–75%; and grade 4, >75%.
# GR [4] = molecular target: T1, GR (Homo sapiens, UniProt P04150); assay: AP-1-Luc repression reporter assay in AD293 cells; format: cell-based; conditions: AP-1 reporter, PMA 0.6 ng ml^-1
# T1 construct: expressed in transfected cells; host or cells: AD293
# T1 sequence (P04150 1-777): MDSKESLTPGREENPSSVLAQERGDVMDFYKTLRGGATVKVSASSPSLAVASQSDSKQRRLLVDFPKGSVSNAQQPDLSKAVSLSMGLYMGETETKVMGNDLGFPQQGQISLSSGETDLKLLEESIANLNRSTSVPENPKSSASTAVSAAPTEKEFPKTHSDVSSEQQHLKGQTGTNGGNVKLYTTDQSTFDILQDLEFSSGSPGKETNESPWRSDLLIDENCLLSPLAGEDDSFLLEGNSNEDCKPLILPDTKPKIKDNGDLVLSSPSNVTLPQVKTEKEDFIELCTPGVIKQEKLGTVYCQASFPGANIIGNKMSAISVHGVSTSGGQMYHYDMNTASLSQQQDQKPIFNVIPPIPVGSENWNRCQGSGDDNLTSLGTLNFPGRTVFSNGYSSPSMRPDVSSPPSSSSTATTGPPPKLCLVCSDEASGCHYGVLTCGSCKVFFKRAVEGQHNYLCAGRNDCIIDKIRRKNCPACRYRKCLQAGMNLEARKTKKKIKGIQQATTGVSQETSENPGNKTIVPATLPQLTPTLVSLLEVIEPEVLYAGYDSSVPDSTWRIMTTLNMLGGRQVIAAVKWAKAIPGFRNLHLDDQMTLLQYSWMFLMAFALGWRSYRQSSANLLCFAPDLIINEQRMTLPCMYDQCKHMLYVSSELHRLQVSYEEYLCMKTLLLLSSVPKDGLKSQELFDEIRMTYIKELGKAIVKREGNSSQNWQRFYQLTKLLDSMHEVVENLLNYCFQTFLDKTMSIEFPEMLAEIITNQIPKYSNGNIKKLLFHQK
# Experimental: (§1) Similar to previous reports, for induction 100 ng pHHLuc (MMTV-Luc) plasmid, 0.1 ng pRShGR together with 5 ng phRGtkRenilla were transfected by X-tremeGENE 9 (Roche) into AD293 cells per well in 24-well plate. For transrepression, 10 ng AP-1-Luc or 10ng pNF-κB-luc, 100 ng pRShGR and 5 ng phRGtkRenilla were transfected into AD293 cells per well. We used the same transfection protocol for the MR and PR assays, except of the use of 0.1 ng MR or PR plasmid to substitute GR. One day after transfection, for induction, cells were directly treated by steroids for 16 h; for repression, cells were treated with either PMA at 0.6 ng ml^–1 (for AP-1 reporter) or TNFα at 2 ng ml^–1 (for NF-κB reporter), together with various steroids. Cells were collected by addition of 1× Passive Lysis Buffer (Promega, Madison, WI, USA), and luciferase activity was assayed by the Dual-Glo Luciferase system (Promega). Data were plotted as firefly luciferase activity normalized to Renilla luciferase activity in Relative Luciferase Units.
# GR [5] = molecular target: T1, GR; assay: In vitro H3-Dex competition GR ligand-binding assay; conditions: H3-DEX 15 nM, GR cytosol
# From the text: The in vitro GR binding assay is similar to the one described previously. […] Data were plotted as a standard competition curve by GraphPad Prism 5.
# GR [6] = molecular target: T1, GR; conditions: cited from earlier work
# GR [7] = molecular target: T1, GR; assay: NF-κB-Luc repression reporter assay in AD293 cells; format: cell-based; conditions: TNFα 2 ng ml^-1
# Experimental: as §1
# Error bars indicate SD, n=3.
# RAW264.7 cells = assay: Gene expression (microarray and quantitative PCR) in LPS-stimulated RAW264.7 cells; format: cell-based, mouse; conditions: RAW264.7, LPS, steroid 100 nM
# Experimental: Mouse macrophage RAW264.7 cells were grown in 6-well plates to reach 80% confluence. The cells were pretreated with different steroids at 100 nM 1 h before overnight induction of inflammation by 1 μg ml^–1 LPS. Total RNA was isolated using a Qiagen mini RNA extraction kit (Valencia, CA, USA). Complementary DNA was synthesized from total RNA with an Invitrogen Superscript cDNA synthesis kit (Carlsbad, CA, USA). Target genes were quantified with a Power SYBR Green Real-Time PCR kit (Carlsbad, CA, USA) (ABI) in a StepOnePlus real-time PCR instrument (Applied Biosystems, Carlsbad, CA, USA). In every case, GAPDH (glyceraldehyde-3-phosphate dehydrogenase) was used as an internal control and data were analyzed by the ΔΔCt method. The specificity of target primers was tested both in a dissociation (melting) curve (Supplementary Figure S4) and against a water control. Primer sequence information is included in Supplementary Figure S4.
# RAW264.7 cells were treated with designated steroids at 100 nM 1 h before overnight LPS stimulation of inflammation. Each treatment was duplicated. The following day, RNA samples were isolated using a Qiagen mini RNA extraction kit and applied to the Agilent Whole Mouse Genome 8x60K gene expression platform. Data were analyzed by the limma package in R program. Heat maps were generated by the HeatMap 2 package. Pathway analysis was done via DAVID Bioinformatics Resources 6.7 (NIAID) and Venn diagrams were generated by BioVenn.
# GR [8] = molecular target: T1, GR; assay: MMTV-Luc induction reporter assay in AD293 cells; format: cell-based; conditions: 16 h
# Experimental: as §1
# [9] = Insulin-tolerance test and plasma insulin level; conditions: 1 mg kg^-1 daily, 7 days
# Experimental: DBA/1 mice (Taconic) were weighted just before the experiment. After 4 h fasting, mice were i.p. injected with 0.75 U kg^–1 of insulin (Huamlin R). Blood samples were taken from the tail at time 0 (before insulin injection), 15, 30, 45, 60, 90 and 120 min after injection. Plasma glucose levels were measured using an AlphaTrak glucose meter. All data were plotted as percent of glucose level at time 0. Endogenous insulin levels were measured using the Ultra Sensitive Mouse Insulin ELISA kit (Crystal Chem, Downers Groove, IL, USA).
# [10] = Bone density (μCT) and biomechanics testing of femurs; format: in vivo, DBA/1 mice; conditions: 1 mg kg^-1 daily, 2 weeks
# Experimental: Femur bones were collected and scanned by μCT (Skyscan 1172 uCT) for quantification of trabecular and cortical bone parameters. The thresholds for μCT quantification of trabecular and cortical bone parameters were set at 80–100 and 100–110, respectively. μCT analyses of cortical bone parameters were performed on 100-μCT slices (1 mm total) from the middle shaft of femurs; trabecular parameters were assessed in 100-μCT slices (1 mm total) immediately below the distal growth plate of the femur. Following uCT scans, the femurs were individually tested on a TestResources 570 Force Transducer. Bones were thawed in PBS before being tested, to ensure no brittleness was due to freezing. […] Data points were collected at a frequency of 50 Hz and a deflection rate of 0.005 mm s^–1.
# [11] = Body weight (growth inhibition) of DBA/1 mice; format: in vivo; conditions: 1 mg kg^-1 daily i.p., 2 weeks, 7-week-old mice
# Experimental: (§2) Figure 5 Examination of side effects of VSGC12 and FF at the effective dose. (a) Body weight of DBA/1 mice treated with the indicated daily dose of steroids for 2 weeks. Mice body weight was measured at day 0, 7 and 14. (b) Insulin-tolerance test of mice treated with the indicated daily doses of steroids for 7 days. Glucose level was measured at day 7 at various time points before and after insulin injection. Data were plotted as percent of the glucose level of time 0. (c) Plasma insulin levels of mice treated with the indicated daily doses of steroid for 7 days. (d) Spleen size and weight for mice treated with the indicated daily doses of steroid for 2 weeks. (e) Cortical bone thickness of femurs of mice treated with the indicated daily doses of steroid for 2 weeks. (f) Bone stiffness of femurs of mice treated with the indicated daily doses of steroid for 2 weeks. Mouse strain: DBA/1. Each treatment n=5, error bars indicate s.e.m., *P<0.05; **P<0.01; ***P<0.001.
# [12] = Spleen size and weight (spleen atrophy); format: in vivo, DBA/1 mice; conditions: 1 mg kg^-1 daily, 2 weeks
# Experimental: as §2
smiles,measurement,setting,value
"CCC(=O)O[C@]1(C(=O)SCF)[C@H](C)C[C@H]2[C@@H]3C[C@H](F)C4=CC(=O)C=C[C@]4(C)[C@@]3(F)[C@@H](O)C[C@@]21C [FP, fluticasone propionate]",IC50,[1],18 pM
same,EC50,[2],1100 pM
"C[C@@H]1C[C@H]2[C@@H]3CCC4=CC(=O)C=C[C@]4(C)[C@@]3(F)[C@@H](O)C[C@]2(C)[C@@]1(O)C(=O)CO [DEX, dexamethasone, reference compound]",IC50,[3],800 pM
same,infiltration of immune responsive cells into the lungs (total and differential cell count),OVA-induced asthma; 1 mg kg^-1 i.p.,only a mild effect
same,repression of airway hyper-responsiveness (AHR),OVA-induced asthma; 1 mg kg^-1 i.p.,neither VSG22 nor DEX can effectively repress the airway hyper-responsiveness
CON(C)C(=O)C1(OC(=O)c2ccco2)CCC2C3CCC4=Cc5c(cnn5-c5ccccc5)CC4(C)C3C(O)CC21C (stereo not drawn) [VSG22],IC50,GR [4],40 pM
same,IC50,GR [5],4100 pM
same,IC50,[3],70 pM
same,repression of airway hyper-responsiveness (AHR),OVA-induced asthma; 1 mg kg^-1 i.p.,neither VSG22 nor DEX can effectively repress the airway hyper-responsiveness
same,increase in potency relative to the original backbone VSG24,GR [6],more than 1 000 fold
same,IC50,GR [7],100 pM
same,"inhibition activity of pro-inflammatory cytokines (microarray, normalized to DEX)",RAW264.7 cells,much stronger inhibition activity than DEX
same,EC50,GR [8],740 pM
"C[C@@H]1C[C@H]2[C@@H]3C[C@H](F)C4=CC(=O)C=C[C@]4(C)[C@@]3(F)[C@@H](O)C[C@]2(C)[C@@]1(OC(=O)c1ccco1)C(=O)SCF [FF, fluticasone furoate, reference compound]",insulin resistance in insulin-tolerance test,[9],hyper-insulin resistance
same,plasma (endogenous) insulin level,[9],dramatic increase of the endogenous insulin level
same,bone strength (stiffness) of femurs,[10],dramatic decrease of bone strength in terms of stiffness
same,cortical bone thickness of femurs,[10]; μCT,dramatic decrease of the cortical bone thickness
same,growth inhibition (body weight),[11],significant growth inhibition
same,IC50,[3],30 pM
same,% repression of total differentiated cells,OVA-induced asthma; 0.125 mg/kg,14%
same,% repression of AHR,OVA-induced asthma; 0.125 mg/kg,< 28% and 28%
same,% repression of total differentiated cells,OVA-induced asthma; 0.25 mg/kg,30%
same,% repression of AHR,OVA-induced asthma; 0.25 mg/kg,< 35% and 34%
same,infiltration of immune responsive cells into the lungs (total and differential cell count),OVA-induced asthma; 1 mg kg^-1 i.p.,strongly repressed the infiltration of immune responsive cells into the lungs
same,repression of airway hyper-responsiveness (AHR),OVA-induced asthma; 1 mg kg^-1 i.p.,strongly suppress the AHR to the basal level
same,"histology score, PAS staining","OVA-induced asthma; 1 mg kg^-1 i.p., grade 0-4",1.5
same,"histology score, hematoxylin and eosin staining","OVA-induced asthma; 1 mg kg^-1 i.p., grade 0-4",0.83
same,% repression of AHR,"OVA-induced asthma; 1 mg/kg, OVA+DMSO 0, saline 100",95%
same,% repression of total differentiated cells,"OVA-induced asthma; 1 mg/kg, saline 100, OVA+DMSO 0",94%
same,minimal dose to maximally repress the inflammation (maximal effective dose),"OVA-induced asthma; judged from AHR, i.p.",1 mg kg^–1
same,OVA-IgE levels,"OVA-induced asthma; lower doses (0.25, 0.125, 0.0625 mg kg^-1)",unexpectedly higher than the vehicle control
same,atrophy of the spleen,[12],dramatic shrinkage of the spleen
same,"inhibition activity of pro-inflammatory cytokines (microarray, normalized to DEX)",RAW264.7 cells,much stronger inhibition activity than DEX

# From PMC4822341 (Cell Discovery, 2015)
